What was measured:
[1] = Blood-brain barrier penetration, intravenous dosing; assay type: in vivo, rodents (mice or rats); settings: 3 mg/kg intravenous; for Brain concentration / Plasma concentration: at 30 min.
Description: Test compounds were administered to rodents (mice or rats) either orally, subcutaneously or intravenously. To determine blood or plasma concentrations blood samples were taken at different time points and analysed for the concentration of test compound by LC/MS. Brain concentrations were measured by sacrificing animals and LC/MS analysis of brain homogenate.
The results for Compounds (2), (19), (6) and (27) are summarised in Table 6 showing concentrations of the Compounds in blood plasma and the brain.

[2] = biological target: cyclophilin A (Homo sapiens (Human), UniProt P62937); experiment: Functional peptidyl prolyl isomerase (PPIase) spectrophotometric assay, cyclophilin A; assay type: biochemical; settings: first value of CypA/D cell
cyclophilin A, sequence (P62937 whole entry, species assumed): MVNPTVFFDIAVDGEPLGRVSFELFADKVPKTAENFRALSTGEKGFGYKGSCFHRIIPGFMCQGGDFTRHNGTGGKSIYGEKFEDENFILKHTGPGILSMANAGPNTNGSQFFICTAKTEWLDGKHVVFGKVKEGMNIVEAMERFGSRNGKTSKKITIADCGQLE
Method in brief: (§1)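 Cuvette-based UV/Vis assay of PPIase-catalysed cis-to-trans isomerisation of a peptide substrate. First-order rate constants fitted to absorbance, background rate subtracted. Ki derived from rate constant versus inhibitor concentration, typically 6-point curves in duplicate.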

[3] = biological target: cyclophilin D (Homo sapiens (Human), UniProt P30405); experiment: Functional peptidyl prolyl isomerase (PPIase) spectrophotometric assay, cyclophilin D; assay type: biochemical; settings: second value of CypA/D cell; read-out: Ki CypD
cyclophilin D, sequence (P30405 30-207, species assumed): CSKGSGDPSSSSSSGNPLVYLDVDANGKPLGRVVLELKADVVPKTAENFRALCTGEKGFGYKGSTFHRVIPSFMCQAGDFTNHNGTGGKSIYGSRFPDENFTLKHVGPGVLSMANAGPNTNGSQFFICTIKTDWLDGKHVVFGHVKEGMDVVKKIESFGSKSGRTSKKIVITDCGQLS
Method in brief: as §1

[4] = system: permeabilised HepG2 cells; experiment: Calcium retention capacity (CRC) assay in permeabilised HepG2 cells (MPTP opening); assay type: cell-based, human; parameters: CRC [10 μM]: unit not given here; settings: compound at 10 μM; for CRC [10 μM]: digitonin permeabilised HepG2 cells; for CRC [10 μM] (ratio vs CsA): normalised to cyclosporin A, value in brackets
Method in brief: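 Digitonin-permeabilised HepG2 cells received trains of calcium pulses (typically 5 μM) monitored with Calcium Green-5N until buffering failed, marking permeability transition. Runs with and without compound; calcium retained at 10 μM compound expressed as ratio versus cyclosporin A positive control.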

[5] = system: SH-SY5Y cells; experiment: Thapsigargin treated cell death assay in SH-SY5Y cells; assay type: cell-based, human; settings: compound at 10 μM; positive = protection from cell death, negative = compound toxicity
Text: Thapsigargin raises intracellular free calcium (Ca^2+) by potently inhibiting the endoplasmic reticulum Ca-ATPase, which sequesters Ca^2+ from the cytosol. The increased cytosolic Ca^2+ concentration is buffered by mitochondria by exchanging Ca^2+ for K, leading to depolarisation in the inner mitochondrial membrane and permeability transition.
The thapsigargin treated Jurkat cell death assay is a homogeneous 96 well plate based assay for cell death, instigated by the opening of the mitochondrial permeability transition pore (MPTP). The addition of thapsigargin to Jurkat cells results in an influx of calcium, the increase in intracellular calcium will initially be buffered by the mitochondria, but eventually the increasing calcium concentration will result in the opening of the MPTP, resulting in cell death.
CellTox™ Green is a dye which is unable to enter the cell until cell death leads to the loss of membrane integrity. Once this happens the CellTox™ Green enters the cell, binds to the cell's DNA and emits a fluorescent signal. […] Unless otherwise stated, the assay is typically run using a range of three compound concentrations of 1, 3 and 10 μM in triplicate and is read kinetically over a period of 24 hours. Compounds are added 30 minutes before the addition of thapsigargin. Compound only controls and positive control, cyclosporin A (CsA) (3 and 10 μM) are also included in the assay. Results are typically calculated at the 8 hour time point and the kinetic data is also reported.
The assay is carried out as described for the Jurkat cells but using the SH-SY5Y (human neuroblastoma) cell line instead of Jurkat cells. The results are shown in the fourth column of Table 5 (SY5Y [10 μM]% recovery). Positive numbers indicate protection from cell death, negative numbers indicate compound toxicity.

SMILES | Blood-brain barrier passage [1] | Brain concentration [1] | Plasma concentration [1] | Ki [2] | Ki [3] | CRC [10 μM] [4] | CRC [10 μM] (ratio vs CsA) [4] | SYSY [10 μM] % recovery [5]
C[C@@H]1NC(=O)C(CCc2ccccc2)OC(=O)C(C)(C)/C=C/c2ccc3ccc(nc3c2)N(C)NC(=O)[C@@H]2CCCN(N2)C1=O (single isomer, unassigned) [(27)] | passed the blood-brain barrier | 285 ng/mL | 1382 ng/mL | – | – | – | – | –
CC(C)[C@@H]1OC(=O)C2(/C=C/c3ccc4ccc(nc4c3)N(C)N(C)C(=O)[C@@H]3CCCN(N3)C(=O)[C@H](C)NC1=O)COCOC2 [(19)] | passed the blood-brain barrier | 116 ng/mL | 74 ng/mL | 23 nM | 150 nM | 30 | 0.77 | –
CC(C)[C@@H]1OC(=O)C(C)(C)C/C=C/c2ccc3ccc(nc3c2)N(C)NC(=O)[C@@H]2CCCN(N2)C(=O)[C@H](C)NC1=O [Compound (6)] | passed the blood-brain barrier | 197 ng/mL | 1216 ng/mL | > 10000 nM | > 10 nM | – | – | –
CC(C)[C@@H]1OC(=O)C(C)(C)/C=C/c2ccc3ccc(nc3c2)N(C)NC(=O)[C@@H]2CCCN(N2)C(=O)[C@H](CCC(=O)Nc2ccccc2)NC1=O [Compound (63)] | – | – | – | 11 nM | 15 nM | 30 | 1.00 | 48%
CC(C)[C@@H]1OC(=O)C(C)(C)/C=C/c2ccc3ccc(nc3c2)N(C)NC(=O)[C@@H]2CCCN(N2)C(=O)[C@H](CCC(=O)N(C)c2ccccc2)NC1=O [Compound (64)] | – | – | – | 5.1 nM | 59 nM | 25 | 1.00 | 44%
CC(C)[C@@H]1OC(=O)C(C)(C)/C=C/c2ccc3ccc(nc3c2)N(C)NC(=O)[C@@H]2CCCN(N2)C(=O)[C@H](CCC(=O)NCc2cccnc2)NC1=O [Compound (65)] | – | – | – | 14 nM | 22 nM | 20 | 0.90 | 51%
CC(C)[C@@H]1OC(=O)C(C)(C)/C=C/c2ccc3ccc(nc3c2)N(C)NC(=O)[C@@H]2CCCN(N2)C(=O)[C@H](CCC(=O)N[C@H](C)c2ccccc2)NC1=O [Compound (66)] | – | – | – | 3.6 nM | 6.6 nM | 25 | 0.80 | 63%
CC(C)[C@@H]1OC(=O)C(C)(C)/C=C/c2ccc3ccc(nc3c2)N(C)NC(=O)[C@@H]2CCCN(N2)C(=O)[C@H](CCC(=O)NCC2CCOCC2)NC1=O [Compound (67)] | – | – | – | 40 nM | 26 nM | 25 | 1.00 | 52%
CC(C)[C@@H]1OC(=O)C(C)(C)/C=C/c2ccc3ccc(nc3c2)N(C)NC(=O)[C@@H]2CCCN(N2)C(=O)[C@H](CCC(=O)NCc2cnn(C)c2)NC1=O [Compound (68)] | – | – | – | 16 nM | 9.9 nM | 25 | 0.83 | 37%
CC(C)[C@@H]1OC(=O)C(C)(C)/C=C/c2ccc3ccc(nc3c2)N(C)NC(=O)[C@@H]2CCCN(N2)C(=O)[C@H](CCC(=O)N2CCNCC2)NC1=O [Compound (69)] | – | – | – | 34 nM | 41 nM | 20 | 0.80 | 17%
CC(C)[C@@H]1OC(=O)C(C)(C)/C=C/c2ccc3ccc(nc3c2)N(C)NC(=O)[C@@H]2CCCN(N2)C(=O)[C@H](CCC(=O)N2CCN(C)CC2)NC1=O [Compound (70)] | – | – | – | 6.7 nM | 53 nM | 25 | 1.00 | 44%
CC(C)[C@@H]1OC(=O)C(C)(C)/C=C/c2ccc3ccc(nc3c2)N(C)NC(=O)[C@@H]2CCCN(N2)C(=O)[C@H](CCC(=O)NC2CCN(C)CC2)NC1=O [Compound (71)] | – | – | – | 51 nM | 16 nM | 18.3 | 0.76 | 4%
CC(C)[C@@H]1OC(=O)C(C)(C)/C=C/c2ccc3ccc(nc3c2)N(C)NC(=O)[C@@H]2CCCN(N2)C(=O)[C@H](CCC(=O)N2CCC(O)CC2)NC1=O [Compound (72)] | – | – | – | 14 nM | 21 nM | 20 | 0.80 | 43%
CC(C)[C@@H]1OC(=O)C(C)(C)/C=C/c2ccc3ccc(nc3c2)N(C)NC(=O)[C@@H]2CCCN(N2)C(=O)[C@H](CC2CCN(C)CC2)NC1=O [Compound (73)] | – | – | – | 11 nM | 42 nM | 15 | 0.75 | 43%
CC(C)[C@@H]1OC(=O)C(C)(C)/C=C/c2ccc3ccc(nc3c2)N(C)NC(=O)[C@@H]2CCCN(N2)C(=O)[C@H](Cc2ccccc2)NC1=O [Compound (76)] | – | – | – | 5.6 nM | 6.3 nM | 33.9 | 0.97 | 27.6%
CC(C)[C@@H]1OC(=O)C(C)(C)/C=C/c2ccc3ccc(nc3c2)N(C)NC(=O)[C@@H]2CCCN(N2)C(=O)[C@H](Cc2ccc(CN(C)C)cc2)NC1=O [Compound (79)] | – | – | – | 8.9 nM | 28 nM | 28.33 | 0.85 | 1.8%
CC(C)[C@@H]1OC(=O)C(C)(C)/C=C/c2ccc3ccc(nc3c2)N(C)NC(=O)[C@@H]2CCCN(N2)C(=O)[C@H](C2CC2)NC1=O [Compound (80)] | – | – | – | 4 nM | 22 nM | 25 | 1.00 | 29.2%
C[C@@H]1NC(=O)[C@H](Cc2ccccc2Cl)OC(=O)C(C)(C)/C=C/c2ccc3ccc(nc3c2)N(C)NC(=O)[C@@H]2CCCN(N2)C1=O [Compound (81)] | – | – | – | 9.7 nM | 9.4 nM | 20 | 0.67 | 44%
